Where a name gives a salt, the structure may show the parent alone.
Tested on: compound-treated mice
Assay: Neuropharmacological assay (SmartCube): behavioral activity signature and minimal effective dose
Assay type: in vivo
Conditions: Mus musculus, ip, MED = dose having 50% or more total activity, read-out: Potency: minimal effective dose (MED)
Method in brief: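 Video-recorded behavior is compared algorithmically against a reference-compound database, yielding class probabilities (best dose reported). Compounds given i.p. in NMP/PEG/propylene glycol 15 min pre-test at 3 doses; potency as MED, the dose (mpk, range usually 0.3–30) reaching ≥50% total activity.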

SMILES | minimal effective dose [mg/kg]
Cl.NC1COCc2ccc(Cl)cc21 (centres unmarked) [Example 1, 6-Chloroisochroman-4-amine hydrochloride] | 10 to 30
Cl.NC1COCc2cc(Cl)ccc21 (centres unmarked) [Example 2] | 10 to 30
Cl.NC1COCc2cc(F)ccc21 (centres unmarked) [Example 3] | 10 to 30
Cc1ccc2c(c1)COCC2N.Cl (centres unmarked) [Example 4] | 10 to 30
Cl.NC1COCc2c(Cl)cccc21 (centres unmarked) [Example 5] | < 3

Same assay, conditions: Mus musculus, ip, MED = dose having 50% or more total activity, read-out: Potency: minimal effective dose (MED), binned

SMILES | minimal effective dose [mg/kg]
CCC[C@H]1OCc2ccccc2[C@@H]1N (single isomer, unassigned) [Example 251] | 3 to 10
Cc1cccc2c1[C@@H](C)OC[C@H]2N (single isomer, unassigned) [Example 254] | 3 to 10
CC[C@@H]1OCc2ccccc2[C@@H]1N(C)C.Cl (single isomer, unassigned) [Example 260] | 3 to 10
CC[C@H]1OCc2ccccc2[C@@H]1N(C)C.Cl (single isomer, unassigned) [Example 261] | 10 to 30
Cl.N[C@H]1c2ccccc2CO[C@@H]1CF (single isomer, unassigned) [Example 276, cis-3-(fluoromethyl)isochroman-4-amine hydrochloride] | 3 to 10
C[C@@H]1OC[C@@H](N(C)C)c2ccccc21 (stereo in doubt) [Example 239, cis-N,N,1-trimethylisochroman-4-amine hydrochloride] | 3 to 10

Same assay, conditions: i.p. 15 min before test, most efficacious dose(s)

SMILES | AD: ADHD (probability of activity signature) | AG: analgesic (probability of activity signature) | AX: anxiolytic (probability of activity signature) | CE: cognitive enhancer (probability of activity signature) | DP: anti-depressant (probability of activity signature) | MS: mood stabilizer (probability of activity signature) | PS: anti-psychotic (probability of activity signature) | SD: sedative hypnotic (probability of activity signature) | UN: uncharacterized CNS activity (probability of activity signature)
CCC[C@H]1OCc2ccccc2[C@@H]1N (single isomer, unassigned) [Example 251] | ++ (5% ≤ ++ <25%) | + (LOQ ≤ + <5%) | ++ (5% ≤ ++ <25%) | + (LOQ ≤ + <5%) | + (LOQ ≤ + <5%) | ++ (5% ≤ ++ <25%) | ++ (5% ≤ ++ <25%) | ++ (5% ≤ ++ <25%) | ++ (5% ≤ ++ <25%)
Cc1cccc2c1[C@@H](C)OC[C@H]2N (single isomer, unassigned) [Example 254] | + (LOQ ≤ + <5%) | + (LOQ ≤ + <5%) | + (LOQ ≤ + <5%) | + (LOQ ≤ + <5%) | + (LOQ ≤ + <5%) | + (LOQ ≤ + <5%) | + (LOQ ≤ + <5%) | ++ (5% ≤ ++ <25%) | ++ (5% ≤ ++ <25%)
CC[C@@H]1OCc2ccccc2[C@@H]1N(C)C.Cl (single isomer, unassigned) [Example 260] | ++ (5% ≤ ++ <25%) | + (LOQ ≤ + <5%) | + (LOQ ≤ + <5%) | + (LOQ ≤ + <5%) | + (LOQ ≤ + <5%) | ++ (5% ≤ ++ <25%) | + (LOQ ≤ + <5%) | ++ (5% ≤ ++ <25%) | + (LOQ ≤ + <5%)
CC[C@H]1OCc2ccccc2[C@@H]1N(C)C.Cl (single isomer, unassigned) [Example 261] | ++ (5% ≤ ++ <25%) | + (LOQ ≤ + <5%) | + (LOQ ≤ + <5%) | + (LOQ ≤ + <5%) | ++++ (50% ≤ ++++) | + (LOQ ≤ + <5%) | + (LOQ ≤ + <5%) | ++ (5% ≤ ++ <25%) | ++ (5% ≤ ++ <25%)
Cl.N[C@H]1c2ccccc2CO[C@@H]1CF (single isomer, unassigned) [Example 276, cis-3-(fluoromethyl)isochroman-4-amine hydrochloride] | + (LOQ ≤ + <5%) | + (LOQ ≤ + <5%) | + (LOQ ≤ + <5%) | + (LOQ ≤ + <5%) | + (LOQ ≤ + <5%) | ++ (5% ≤ ++ <25%) | + (LOQ ≤ + <5%) | ++ (5% ≤ ++ <25%) | + (LOQ ≤ + <5%)
C[C@@H]1OC[C@@H](N(C)C)c2ccccc21 (stereo in doubt) [Example 239, cis-N,N,1-trimethylisochroman-4-amine hydrochloride] | ++ (5% ≤ ++ <25%) | ++ (5% ≤ ++ <25%) | ++ (5% ≤ ++ <25%) | ++ (5% ≤ ++ <25%) | ++ (5% ≤ ++ <25%) | + (LOQ ≤ + <5%) | ++ (5% ≤ ++ <25%) | + (LOQ ≤ + <5%) | +++ (25% ≤ +++ <50%)
Cl.NC1COCc2ccc(Cl)cc21 (centres unmarked) [Example 1, 6-Chloroisochroman-4-amine hydrochloride] | + (LOQ ≤ + <5%) | ++ (5% ≤ ++ <25%) | ++ (5% ≤ ++ <25%) | ++ (5% ≤ ++ <25%) | + (LOQ ≤ + <5%) | + (LOQ ≤ + <5%) | ++ (5% ≤ ++ <25%) | ++ (5% ≤ ++ <25%) | ++ (5% ≤ ++ <25%)
Cl.NC1COCc2cc(Cl)ccc21 (centres unmarked) [Example 2] | + (LOQ ≤ + <5%) | ++ (5% ≤ ++ <25%) | ++ (5% ≤ ++ <25%) | + (LOQ ≤ + <5%) | + (LOQ ≤ + <5%) | + (LOQ ≤ + <5%) | + (LOQ ≤ + <5%) | + (LOQ ≤ + <5%) | +++ (25% ≤ +++ <50%)
Cl.NC1COCc2cc(F)ccc21 (centres unmarked) [Example 3] | + (LOQ ≤ + <5%) | ++ (5% ≤ ++ <25%) | ++ (5% ≤ ++ <25%) | + (LOQ ≤ + <5%) | ++ (5% ≤ ++ <25%) | + (LOQ ≤ + <5%) | + (LOQ ≤ + <5%) | ++ (5% ≤ ++ <25%) | +++ (25% ≤ +++ <50%)
Cc1ccc2c(c1)COCC2N.Cl (centres unmarked) [Example 4] | + (LOQ ≤ + <5%) | ++ (5% ≤ ++ <25%) | +++ (25% ≤ +++ <50%) | ++ (5% ≤ ++ <25%) | ++ (5% ≤ ++ <25%) | + (LOQ ≤ + <5%) | ++ (5% ≤ ++ <25%) | ++ (5% ≤ ++ <25%) | + (LOQ ≤ + <5%)
Cl.NC1COCc2c(Cl)cccc21 (centres unmarked) [Example 5] | + (LOQ ≤ + <5%) | ++ (5% ≤ ++ <25%) | ++ (5% ≤ ++ <25%) | ++ (5% ≤ ++ <25%) | ++ (5% ≤ ++ <25%) | + (LOQ ≤ + <5%) | ++ (5% ≤ ++ <25%) | ++ (5% ≤ ++ <25%) | +++ (25% ≤ +++ <50%)

— patent publication US11077090B2, “Compounds and compositions and uses thereof” (Sunovion Pharmaceuticals Inc., priority 2016, dated 2021)
